We go through 14 molecules from article PMC9229991, “Development of Reduced Peptide Bond Pseudopeptide Michael Acceptors for the Treatment of Human African Trypanosomiasis” (Molecules, 2022).

A word on the Ki: it is the equilibrium dissociation constant of an inhibitor or competing ligand from its target. The EC50 is the concentration needed to bring the measured effect to its halfway point. Broadly, the IC50 is the concentration at which inhibition is half-maximal.

Read-outs that look alike come from different tables or passages of the source.

The target of one data set is T1, rhodesain (Trypanosoma brucei rhodesiense, UniProt Q95PM0).
T1 construct: made in house
T1 sequence (Q95PM0 entry or part of it): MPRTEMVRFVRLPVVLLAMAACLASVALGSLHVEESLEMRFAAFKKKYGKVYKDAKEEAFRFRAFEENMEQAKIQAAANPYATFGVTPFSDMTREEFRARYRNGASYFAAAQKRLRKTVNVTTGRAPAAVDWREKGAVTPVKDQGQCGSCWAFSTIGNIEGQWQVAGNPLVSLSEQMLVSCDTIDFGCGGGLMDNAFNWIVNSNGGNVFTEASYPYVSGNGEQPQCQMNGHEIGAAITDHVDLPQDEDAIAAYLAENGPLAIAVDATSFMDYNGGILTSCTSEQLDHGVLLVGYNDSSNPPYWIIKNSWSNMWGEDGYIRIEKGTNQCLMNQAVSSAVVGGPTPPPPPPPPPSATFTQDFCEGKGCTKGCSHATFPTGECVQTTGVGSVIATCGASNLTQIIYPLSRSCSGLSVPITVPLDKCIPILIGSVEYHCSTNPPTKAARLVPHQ
As to the kind of experiment: Rhodesain fluorogenic enzyme assay (Cbz-Phe-Arg-AMC substrate). The class given is biochemical, T. b. rhodesiense. The settings on record: for Rhodesain kinac: pH 5.5, room temperature; for Rhodesain k2nd: k2nd = kinact/Ki; for inhibition at 100 µM: preliminary screening at 100 µM, read-out: Rhodesain % of inhibition at screening concentration. As to the method: All molecules were tested towards rhodesain utilizing fluorogenic assays in the presence of Cbz-Phe-Arg-AMC as substrate. […] Firstly, all the molecules were preliminarily screened at 100 µM (Figure 1A), and DMSO and E-64 were employed as the negative and positive control, respectively. Since SPR10–SPR19 passed the initial screening (% of inhibition > 80%), they were properly diluted, in accordance with what is reported in the literature.
Rhodesain was recombinantly expressed as previously described and Cbz-Phe-Arg-AMC (10 µM) was used as the fluorogenic substrate. The rhodesain-mediated hydrolysis released the fluorescent portion AMC, and fluorescence was measured at room temperature over a period of 30 min, using an Infinite 200 PRO microplate reader, and excitation (380 nm) and emission ([…]) filters were employed. The assay buffer was composed of 50 mM sodium acetate, 5 mM EDTA, 200 mM NaCl, and 0.005% Brij 35 with a pH equal to 5.5. Similarly, the enzyme buffer contained the same chemicals as the assay, with the exception of Brij, which was replaced by 1,4-dithiothreitol (DTT). All the SPR derivatives were solubilized in DMSO, which was also used as the negative control. E-64 protease inhibitor [76] was employed as the positive control. […] Each independent assay was performed twice and in duplicate, using 96 well-plates in a total volume of […]. The first order inactivation rate constants (kobs) were determined by means of nonlinear regression analysis of the progress curves (fluorescence (F) vs. time), and the equation F = A (1 − exp(−kobst)) + B was used. The obtained kobs values were fitted vs. the concentrations of tested inhibitors, and the equation kobs = kinact [I]/(Kiapp + [I]) provided the Kiapp and kinact values. Ki values were obtained using the equation Ki = Kiapp/(1 + [S]/Km), where Km is equal to 0.9 µM [77]. Grafit software was used for the nonlinear regression analysis to calculate kinact and Ki. The second-order rate constants k2nd were directly determined as k2nd = kinact/Ki.

Data set [1] has as its system T. b. brucei. Particulars: 24 h; cited from earlier work.
Data set [2] concerns the target human Cathepsin L (hCatL) (Homo sapiens, UniProt P07711). As to the kind of experiment: hCatL fluorogenic enzyme assay (selectivity). The format is biochemical. The settings on record: for inhibition at 100 µM: screening concentration 100 µM; for Ki: Km 6.5 µM. The procedure: In order to evaluate the selectivity towards the protozoan cysteine protease, all the new Michael acceptors were assayed against human Cathepsin L (hCatL), which represents the homologous protease of rhodesain in humans.
Similarly to rhodesain, the activity towards hCatL was evaluated as reported in the literature. The biological evaluation towards hCatL was performed using the same buffers, reader, fluorogenic substrate, and positive and negative controls as described above for rhodesain, and the preliminary screening was performed at 100 µM. In this case too, each independent assay was performed twice and in duplicate. Differently from rhodesain, Km is equal to 6.5 µM [77].

The subject of data set [3] is T. b. brucei. The data set can be described thus: Antitrypanosomal activity, ATPlite assay. The class given is cell-based, Trypanosoma brucei brucei. Particulars: 24 h. As to the method:
The parasites used in this study were culture-adapted Trypanosoma brucei brucei of the cell line 449, descendants of the Lister strain 427 [79, 80]. The cells were grown in HMI-9 medium supplemented with 10% FCS, 50 U/mL penicillin, 50 µg/mL streptomycin, and 0.2 µg/mL phleomycin, at 37 °C and 5% CO2. EC50 values for the antitrypanosomal activity were determined using the ATPlite assay as previously described. Briefly, 10 mM compound stocks in DMSO were diluted to 333 µM in HMI-9 medium. This mixture was used to prepare nine further consecutive 1:2 dilutions in HMI-9 medium. Subsequently, 10 µL of diluted compound mixtures were added to 90 µL of media containing 2500 cell/mL in wells of a 96-well plate, in two separate triplicates. The highest DMSO concentration reached in compound plus cells mixture was 0.3%, and parasites treated with DMSO only were used as control. The cells were incubated for 24 h at 37 °C. Subsequently, 50 µL ATPlite 1 step solution (PerkinElmer) was added to each well and luminescence was measured using a CLARIOstar Plus plate reader (BMG Labtech).
In general terms: Cellular ATP, detected with luciferase, serves as a proxy for viable cell number.

A further data set relates to HEK293 cells. As to the kind of experiment: Cytotoxicity assay, resazurin. The class given is cell-based. Particulars: 24 h. The procedure:
HEK293 cells were cultured in high-glucose DMEM medium with L-glutamine, supplemented with 10% FCS, 20 U/mL penicillin, and 20 µg/mL streptomycin, at 37 °C and 5% CO2. For the cytotoxicity assay, the cells were seeded in 400 µL at 60,000 cells per well of poly-lysine-coated 48-well plates, and incubated for 24 h at 37 °C. Compound stocks were diluted in DMSO in nine consecutive 1:2 steps, resulting in a set of ten dilutions with concentrations from 7 mM to […]. From each dilution, 4 µL were added to the cells in the 48-well plates, in two separate triplicates. Addition of only DMSO served as control. The plates containing cells plus compound dilutions were incubated for 21 h at 37 °C. Subsequently, the medium in each well was exchanged to a medium with resazurin (15 µg/mL), resulting in a final concentration of […]. The plates were incubated for 3 h at 37 °C. Finally, 100 µL of the solution from each well of the 48-well plate was transferred into a 96-well plate, and fluorescence was measured (excitation: 540-14, emission: 590-20) using a CLARIOstar Plus plate reader (BMG Labtech).
For orientation: Alamar Blue is a resazurin reagent that responds to reducing activity.

The subject of another data set is L-6 rat myoblast cells. Details: method as in PMID 21200426. The settings on record: cytotoxicity; read-out: IC50 towards L-6 rat myoblast cells; cited from earlier work.
[4] abbreviates: Cbz-Phe-Arg-AMC 10 µM, pH 5.5, Km 0.9 µM, read-out: Rhodesain Ki.

Chain of human Cathepsin L (hCatL) (P07711 114-333): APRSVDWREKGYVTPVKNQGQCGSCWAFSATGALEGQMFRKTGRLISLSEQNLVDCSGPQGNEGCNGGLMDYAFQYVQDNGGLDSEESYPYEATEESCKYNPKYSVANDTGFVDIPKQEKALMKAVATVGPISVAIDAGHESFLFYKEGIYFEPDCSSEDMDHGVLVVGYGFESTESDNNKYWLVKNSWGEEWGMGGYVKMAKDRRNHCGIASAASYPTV

Regarding `CC(C)C[C@H](NC(=O)[C@H]1O[C@@H]1C(=O)O)C(=O)NCCCCN=C(N)N` [E-64, reference compound], the Ki on rhodesain (setting [4]) turned out to be 33 ± 7 nM. The molecule further came in with a Rhodesain kinac on rhodesain (Cbz-Phe-Arg-AMC 10 µM) of 0.0085 ± 0.0008 min⁻¹. In addition, the “Rhodesain k2nd” value at rhodesain came to 263000 ± 30000 M⁻¹ min⁻¹.
Consider `CSc1ccc(OCc2ncc([N+](=O)[O-])n2C)cc1` [Fexinidazole], for which the EC50 with T. b. brucei [1] is 2380 ± 880 nM.
For the molecule `COC(=O)/C=C/[C@H](CCc1ccccc1)NC(=O)[C@H](Cc1ccccc1)NCc1ccccc1` [SPR10, Methyl (S,E)-4-((S)-2-(benzylamino)-3-phenylpropanamido)-6-phenylhex-2-enoate], at rhodesain (setting [4]), the Ki was determined as 5660 ± 300 nM. Also, the Rhodesain kinac at rhodesain (Cbz-Phe-Arg-AMC 10 µM) is 0.0096 ± 0.0001 min⁻¹. At rhodesain, the “Rhodesain k2nd” value was 1703 ± 68 M⁻¹ min⁻¹ and the inhibition at 100 µM was over 80%. The same molecule showed an inhibition at 100 µM in data set [2] of 16%.
Take `COC(=O)/C=C/[C@H](CCc1ccccc1)NC(=O)[C@H](Cc1ccccc1)NCc1ccc([N+](=O)[O-])cc1` [SPR11, Methyl (S,E)-4-((S)-2-((4-nitrobenzyl)amino)-3-phenylpropanamido)-6-phenylhex-2-enoate]: the Ki on rhodesain (setting [4]) is 430 ± 60 nM; in data set [2], 36900 ± 2200 nM. This molecule also returned a Rhodesain kinac on rhodesain (Cbz-Phe-Arg-AMC 10 µM) of 0.0023 ± 0.0001 min⁻¹. Also, the inhibition at 100 µM on rhodesain was over 80%.
Consider `COC(=O)/C=C/[C@H](CCc1ccccc1)NC(=O)[C@H](Cc1ccccc1)NCc1ccc(OC)cc1` [SPR12, Methyl (S,E)-4-((S)-2-((4-methoxybenzyl)amino)-3-phenylpropanamido)-6-phenylhex-2-enoate], for which the Ki on rhodesain (setting [4]) turned out to be 4790 ± 1410 nM. Besides, at rhodesain (Cbz-Phe-Arg-AMC 10 µM), the Rhodesain kinac came out at 0.0062 ± 0.0014 min⁻¹. Besides, on rhodesain, the “Rhodesain k2nd” value worked out at 1314 ± 91 M⁻¹ min⁻¹ and the inhibition at 100 µM is over 80%. The molecule also displayed a Ki in data set [2] of 18500 ± 3900 nM.
With `COC(=O)/C=C/[C@H](CCc1ccccc1)NC(=O)[C@H](Cc1ccccc1)NCc1ccccc1F` [SPR13, Methyl (S,E)-4-((S)-2-((2-fluorobenzyl)amino)-3-phenylpropanamido)-6-phenylhex-2-enoate], at rhodesain (setting [4]), the Ki was determined as 1580 ± 620 nM. At rhodesain (Cbz-Phe-Arg-AMC 10 µM), this molecule showed a Rhodesain kinac of 0.0038 ± 0.0003 min⁻¹. Besides, at rhodesain, the “Rhodesain k2nd” value was determined as 2753 ± 885 M⁻¹ min⁻¹ and the inhibition at 100 µM is over 80%. In data set [2], the inhibition at 100 µM was determined as 10%.
The corresponding values for `COC(=O)/C=C/[C@H](CCc1ccccc1)NC(=O)[C@H](Cc1ccccc1)NCc1cccc(F)c1` [SPR14, Methyl (S,E)-4-((S)-2-((3-fluorobenzyl)amino)-3-phenylpropanamido)-6-phenylhex-2-enoate] are 1260 ± 80 nM, 0.0043 ± 0.0007 min⁻¹, 3398 ± 328 M⁻¹ min⁻¹, over 80% and 35%.
Turning to `COC(=O)/C=C/[C@H](CCc1ccccc1)NC(=O)[C@H](Cc1ccccc1)NCc1ccc(F)cc1` [SPR15, Methyl (S,E)-4-((S)-2-((4-fluorobenzyl)amino)-3-phenylpropanamido)-6-phenylhex-2-enoate], the Ki on rhodesain (setting [4]) was 2640 ± 130 nM. Further, the Rhodesain kinac at rhodesain (Cbz-Phe-Arg-AMC 10 µM) amounted to 0.0041 ± 0.0002 min⁻¹. Moreover, at rhodesain, the “Rhodesain k2nd” value is 1552 ± 19 M⁻¹ min⁻¹ and the inhibition at 100 µM is over 80%. The same molecule showed an inhibition at 100 µM in data set [2] of 10%.
In the case of `COC(=O)/C=C/[C@H](CCc1ccccc1)NC(=O)[C@H](Cc1ccccc1)NCc1ccc(F)cc1F` [SPR16, Methyl (S,E)-4-((S)-2-((2,4-difluorobenzyl)amino)-3-phenylpropanamido)-6-phenylhex-2-enoate], the Ki on rhodesain (setting [4]) turned out to be 220 ± 60 nM. In addition, the Rhodesain kinac on rhodesain (Cbz-Phe-Arg-AMC 10 µM) stood at 0.0014 ± 0.0001 min⁻¹. The inhibition at 100 µM at rhodesain is over 80%; in data set [2] it was 38%. Moreover, the EC50 in the data set on T. b. brucei [3] (Trypanosoma brucei) is 8700 ± 3000 nM. Further, the “Cytotoxicity towards HEK293 cells: concentration up to which no relevant cytotoxicity was observed” value with HEK293 cells is reported as over 70 µM.
Regarding `COC(=O)/C=C/[C@H](CCc1ccccc1)NC(=O)[C@H](Cc1ccccc1)NCc1cc(F)ccc1F` [SPR17, Methyl (S,E)-4-((S)-2-((2,5-difluorobenzyl)amino)-3-phenylpropanamido)-6-phenylhex-2-enoate], the Ki on rhodesain (setting [4]) was 460 ± 160 nM. This molecule had a Rhodesain kinac on rhodesain (Cbz-Phe-Arg-AMC 10 µM) of 0.0024 ± 0.0006 min⁻¹. Moreover, the inhibition at 100 µM at rhodesain is over 80%; in data set [2], 12%.
Turning to `COC(=O)/C=C/[C@H](CCc1ccccc1)NC(=O)[C@H](Cc1ccccc1)NCc1c(F)cccc1F` [SPR18, Methyl (S,E)-4-((S)-2-((2,6-difluorobenzyl)amino)-3-phenylpropanamido)-6-phenylhex-2-enoate], the Ki at rhodesain (setting [4]) worked out at 210 ± 10 nM. The molecule further came in with a Rhodesain kinac at rhodesain (Cbz-Phe-Arg-AMC 10 µM) of 0.0012 ± 0.0001 min⁻¹. Moreover, the inhibition at 100 µM was over 80% on rhodesain and 26% in data set [2]. The molecule also registered an EC50 in the data set on T. b. brucei [3] (Trypanosoma brucei) of 7000 ± 1000 nM. Also, the “Cytotoxicity towards HEK293 cells: concentration up to which no relevant cytotoxicity was observed” value in the data set on HEK293 cells is reported as over 70 µM.
Regarding `COC(=O)C=CC(CCc1ccccc1)NC(=O)C(Cc1ccccc1)NCc1ccc(C(F)(F)F)cc1` (centres unmarked) [SPR19], on rhodesain, the Ki is 410 ± 70 nM and the inhibition at 100 µM was over 80%. On rhodesain (Cbz-Phe-Arg-AMC 10 µM), this molecule had a Rhodesain kinac of 0.0023 ± 0.0002 min⁻¹. In addition, the inhibition at 100 µM in data set [2] came out at 45%.
In the case of `COC(=O)/C=C/[C@H](CCc1ccccc1)NC(=O)[C@H](Cc1ccccc1)NC(=O)c1ccc(F)cc1` [SPR34, (S,E)-methyl 4-((S)-2-(4-fluorobenzamido)-3-phenylpropanamido)-6-phenylhex-2-enoate], the Ki was 5.8 ± 0.4 nM on rhodesain (setting [4]) and 3500 ± 1100 nM in data set [2]. Also, the Rhodesain kinac at rhodesain (Cbz-Phe-Arg-AMC 10 µM) worked out at 0.0050 ± 0.0003 min⁻¹. The “Rhodesain k2nd” value at rhodesain is 870,606 ± 1178 M^−1 min^−1. Moreover, the “Selectivity Index (SI) (Ki hCatL/rhodesain)” value in data set [2] is reported as 603. Moreover, the EC50 with T. b. brucei [3] was 15800 ± 2000 nM; in the data set with T. b. brucei [3] (Trypanosoma brucei), 16000 ± 2100 nM. Also, the “Cytotoxicity towards HEK293 cells: concentration up to which no relevant cytotoxicity was observed” value in the data set with HEK293 cells is given as over 70 µM.
For the molecule `Nc1nc(N)nc(Nc2ccc([As]3SCC(CO)S3)cc2)n1` (centres unmarked) [melarsoprol], the IC50 in the data set with L-6 rat myoblast cells was 3300 nM.
